Experimental findings from PubChem BioAssay (NCI) are described below.

Among the test systems are HCC-2998 colon; MALME-3M melanoma; MCF7 breast; MOLT-4 leukemia; NCI-H23 lung; RPMI-8226 leukemia; U251 CNS; BT-549 breast.
Assay in all cases: NCI anticancer screen, dose series, 48 h

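The compound was tested at five concentrations on cells cultured in 96-well plates, with a 48-hour exposure period. Abbreviation: GI50, concentration required for 50% inhibition of growth. At the TGI there is no net growth.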

Take `Cc1nc(N)nc2c1CCC(O)S2` (stereo not drawn): the GI50 in the experiment with HCC-2998 colon is 9.46 µM; in the experiment on MALME-3M melanoma, 11.3 µM; in the experiment on MCF7 breast, 3.02 µM; in the experiment with MOLT-4 leukemia, 2.91 µM; in the experiment on NCI-H23 lung, 3.66 µM; in the experiment with RPMI-8226 leukemia, 21.3 µM. In addition, the GI50 in the experiment with U251 CNS was 3.3 µM. The TGI in the experiment on HCC-2998 colon is 22.2 µM; in the experiment on MALME-3M melanoma it was 39.4 µM; with MCF7 breast it was 10.4 µM; in the experiment on MOLT-4 leukemia, 8.36 µM; in the experiment on NCI-H23 lung, 17.2 µM; with RPMI-8226 leukemia it was above 100 µM. For the same compound, the TGI with U251 CNS amounted to 11.5 µM.

Consider `O=C1CC2C(=O)c3ccccc3CC2c2ccccc21` (stereo not drawn), for which the TGI is above 100 µM in the experiment with BT-549 breast; above 100 µM in the experiment on MALME-3M melanoma; above 100 µM in the experiment on MCF7 breast; 69.3 µM in the experiment on MOLT-4 leukemia; 64 µM in the experiment on RPMI-8226 leukemia; above 100 µM in the experiment on U251 CNS.

On to `COc1cccc(/C(C#N)=C/c2nc3c(N4CCOCC4)nc(Cl)nc3n2C)c1`, for which the GI50 was 0.631 µM in the experiment on BT-549 breast; 1.69 µM in the experiment with HCC-2998 colon; 1.57 µM in the experiment with MALME-3M melanoma; 1.27 µM in the experiment on MOLT-4 leukemia; 1.52 µM in the experiment on NCI-H23 lung; 0.376 µM with RPMI-8226 leukemia. Besides, the GI50 in the experiment with U251 CNS is 1.26 µM. The TGI in the experiment on BT-549 breast worked out at 2.04 µM; in the experiment with HCC-2998 colon, 3.24 µM; in the experiment on MALME-3M melanoma, 2.97 µM; in the experiment with MOLT-4 leukemia, 4.79 µM; in the experiment on NCI-H23 lung, 3.19 µM; in the experiment on RPMI-8226 leukemia, 1.87 µM. The TGI with U251 CNS stood at 2.66 µM.

As to `COc1ccc(NC(=O)CSC2=C(Nc3cccc(Br)c3)C(=O)N(Cc3ccccc3)C2=O)cc1Cl`, the GI50 was 51.6 µM in the experiment with BT-549 breast; 15.9 µM in the experiment on MCF7 breast; 1.73 µM in the experiment with MOLT-4 leukemia; 4.14 µM with RPMI-8226 leukemia; 35.5 µM in the experiment on U251 CNS. Further, the TGI in the experiment on BT-549 breast, in the experiment with MCF7 breast, with MOLT-4 leukemia, with RPMI-8226 leukemia and with U251 CNS was above 100 µM throughout.

As to `COc1cc2c(c(OC)c1OC)-c1ncc3c(OC)c(OC)c(OC)cc3c1C2`, the GI50 in the experiment with BT-549 breast is 25.4 µM; in the experiment with HCC-2998 colon, 16.1 µM; in the experiment on RPMI-8226 leukemia it was 19 µM; in the experiment on U251 CNS, 36.9 µM. Moreover, the TGI with BT-549 breast was 55.2 µM; in the experiment on HCC-2998 colon, 30.7 µM; in the experiment with RPMI-8226 leukemia, 54.9 µM; in the experiment on U251 CNS, above 100 µM.

`COc1ccc(-c2cs/c(=N\N=C\c3ccc(O)cc3O)n2/N=C/c2ccc(O)cc2O)cc1`: the GI50 was 1.54 µM with BT-549 breast; 2.07 µM in the experiment with HCC-2998 colon; 2.2 µM in the experiment on MALME-3M melanoma; 1.9 µM in the experiment with MCF7 breast; 1.79 µM with MOLT-4 leukemia; 1.95 µM in the experiment on NCI-H23 lung. The GI50 with U251 CNS is 1.86 µM. The TGI with BT-549 breast came to 3.59 µM; in the experiment on HCC-2998 colon, 4.38 µM; with MALME-3M melanoma it was 4.79 µM; with MCF7 breast, 5.84 µM; in the experiment on MOLT-4 leukemia it was 5.05 µM; with NCI-H23 lung, 4.64 µM. Further, the TGI in the experiment on U251 CNS stood at 3.91 µM.

As to `O=C(O)c1ccc(NCn2nc(-c3ccccc3O)oc2=S)cc1`, the GI50 in the experiment with BT-549 breast was 59.6 µM; in the experiment on HCC-2998 colon, 29.2 µM; with MCF7 breast it was 49.1 µM; in the experiment on MOLT-4 leukemia, 4.69 µM; in the experiment on NCI-H23 lung it was 50.7 µM; in the experiment on RPMI-8226 leukemia, above 100 µM. Moreover, the GI50 with U251 CNS was 43.1 µM. Also, the TGI was above 100 µM in the experiment with BT-549 breast; 93.7 µM with HCC-2998 colon; above 100 µM in the experiment with MCF7 breast; 26.8 µM in the experiment with MOLT-4 leukemia; above 100 µM in the experiment on NCI-H23 lung; above 100 µM in the experiment on RPMI-8226 leukemia. The TGI in the experiment on U251 CNS was above 100 µM.

For `O=C(Nc1cc(C(F)(F)F)ccc1Cl)c1ccc(NC2=C(Cl)C(=O)N(Cc3ccccc3)C2=O)cc1`, the GI50 in the experiment on BT-549 breast is 15 µM; in the experiment with HCC-2998 colon, 5.28 µM; in the experiment on MCF7 breast, 11.6 µM; in the experiment on MOLT-4 leukemia it was 3.53 µM; in the experiment on NCI-H23 lung, 18.9 µM; with RPMI-8226 leukemia it was 2.65 µM. Besides, the GI50 with U251 CNS was 22.6 µM. Moreover, the TGI with BT-549 breast was 39.7 µM; in the experiment on HCC-2998 colon it was 9.11 µM; in the experiment on MCF7 breast it was above 100 µM; in the experiment on MOLT-4 leukemia, 77.7 µM; in the experiment on NCI-H23 lung it was 43.9 µM; in the experiment on RPMI-8226 leukemia it was 8.51 µM. Further, the TGI with U251 CNS is above 100 µM.

For the compound `O=C1/C(=C/c2cccc(Br)c2)COc2ccc(O)cc21`, the GI50 in the experiment with BT-549 breast was 3.01 µM; in the experiment with HCC-2998 colon it was 1.8 µM; in the experiment with MALME-3M melanoma, 2.36 µM; with MOLT-4 leukemia it was 2.46 µM; with NCI-H23 lung, 3.79 µM; in the experiment on RPMI-8226 leukemia, 0.26 µM. Also, the GI50 in the experiment with U251 CNS was 1.49 µM. Also, the TGI was found to be 12.7 µM with BT-549 breast; 3.46 µM in the experiment on HCC-2998 colon; 6.65 µM with MALME-3M melanoma; 10.9 µM in the experiment with MOLT-4 leukemia; 15.6 µM in the experiment with NCI-H23 lung; 0.761 µM in the experiment on RPMI-8226 leukemia. The compound also yielded a TGI in the experiment with U251 CNS of 3 µM.

`CCCCCCCCCCCCCCCCCC1=NC(C)(C)CN1CC(C)O` (stereo not drawn): the GI50 in the experiment with BT-549 breast was 19.7 µM; in the experiment on HCC-2998 colon it was 6.01 µM; with MALME-3M melanoma it was 17.1 µM; in the experiment with MCF7 breast, 3.09 µM; with NCI-H23 lung, 12.7 µM; with RPMI-8226 leukemia, 14.4 µM. The GI50 with U251 CNS is 4.89 µM. For the same compound, the TGI in the experiment with BT-549 breast stood at 40.9 µM; in the experiment with HCC-2998 colon, 18.9 µM; in the experiment on MALME-3M melanoma, 34.4 µM; with MCF7 breast, 14.1 µM; with NCI-H23 lung, 27.1 µM; in the experiment with RPMI-8226 leukemia, 36 µM. The compound also yielded a TGI in the experiment with U251 CNS of 19.9 µM.

Regarding `NS(=O)(=O)c1ccc(-n2nc3c(c2-c2ccc(Cl)cc2)Cc2ccccc2-3)cc1`, the GI50 is 18.3 µM in the experiment on HCC-2998 colon; 2.96 µM in the experiment on MALME-3M melanoma; 22.9 µM in the experiment with MCF7 breast; 5.51 µM with MOLT-4 leukemia; 3.27 µM with NCI-H23 lung; 10.4 µM in the experiment on RPMI-8226 leukemia. For the same compound, the GI50 in the experiment with U251 CNS is 19.5 µM. Also, the TGI in the experiment on HCC-2998 colon was 35.7 µM; in the experiment on MALME-3M melanoma, 14.7 µM; in the experiment with MCF7 breast, 54.8 µM; with MOLT-4 leukemia it was 23.1 µM; with NCI-H23 lung, 19.6 µM; in the experiment on RPMI-8226 leukemia, 24.7 µM. Further, in the experiment on U251 CNS, the TGI came to 37.3 µM.

As to `COc1cc(C2SCCCCCCCCCCSC(c3ccc(O)c(OC)c3)SCCCCCCCCCCS2)ccc1O` (stereo not drawn), the TGI with BT-549 breast, with MALME-3M melanoma, in the experiment on MCF7 breast, with MOLT-4 leukemia, in the experiment on NCI-H23 lung and with RPMI-8226 leukemia was above 100 µM throughout. In the experiment with U251 CNS, this compound showed a TGI above 100 µM.
